Patent US20110020471A1, “ERYTHROCYTE ATP-RELEASE MODULATORS” (Wayne State University, priority 2007, published 2011)

Legend:
[1] = test system: rabbit red blood cells (RBCs); test: Deformation-induced ATP release from rabbit RBCs pumped through microbore tubing (luciferin/luciferase chemiluminescence); assay type: cell-based
Protocol: (§1) Preparation of RBCs. Rabbits (New Zealand whites, males, 2.0-2.5 kg) were anesthetized with ketamine ([…], i.m.) and xylazine (1 mg/kg, i.m.) followed by pentobarbital sodium (15 mg/kg i.v.). A cannula was placed in the trachea and the animals were ventilated with room air. A catheter was placed into a carotid artery for administration of heparin and for phlebotomy. After heparin (500 units, i.v.), the animals were exsanguinated. Human blood was obtained by venipuncture without the use of a tourniquet (antecubital fossa) and collected into a heparinized syringe. Blood was centrifuged at 500×g at 4 C for 10 min. The plasma and buffy coat were discarded. The RBCs were resuspended and washed three times in a physiological salt solution [PSS, containing in mM: 4.7 KCl, 2.0 CaCl2, 140.5 NaCl […], 21.0 tris(hydroxymethyl)aminomethane, 11.1 dextrose with 5% bovine serum albumin (final pH 7.4)]. Cells were prepared on the day of use and experiments were finished within 8 hours of removal from the animal or human subjects. All procedures were approved by the Animal Investigation Committee or the Human Investigation Committee at Wayne State University.
(§2) Measurement of ATP. Human C-peptide (American Peptide Co., Sunnyvale, Calif.), 0.25 mg (MW=3020 g/mol), was dissolved in […] of purified water (18.2 megaohm) to yield a concentration of 83 μM. […] The resulting chemluminescence reaction flowed through a final potion of fused-silica microbore tubing that was placed over a photomultiplier tube, where the emission was detected. The resultant current was measured as a potential by a data acquisition board operated by a program written with the LabView software package (National Instruments, Austin, Tex.).
Introduction. […] Upon deformation in the tubing, the RBCs release ATP that is measured using a well-established chemiluminescence assay for ATP. The concentrations of RBC-derived ATP are measured in the presence and absence of synthetic C-peptide.
C-Peptide-Induced Release of ATP. RBCs obtained from rabbits are pumped through microbore tubing having an inside diameter of […] and the resultant ATP released by the cells upon deformation in the tubing is measured. […] Another aliquot from the same RBC sample is incubated in 1 nM C-peptide and the resultant ATP release measured every 2 h for a period up to 6 h. […] As shown, the ATP release (determined by a chemiluminescence assay) from those cells incubated in the c-peptide increased approximately 2.9 times over a period of […]. […] If cell lysis were occurring, the glybenclamide would have no affect on the measured ATP as it would be present in extracellular form whether or not glybenclamide was introduced to the RBCs. […]

[2] = test system: diabetic human RBCs; test: ATP release from RBCs of patients with type II diabetes; assay type: cell-based; conditions: for ATP release: diabetic human RBCs, ±SEM (n=7)
Protocol: as §1
as §2, with “μM. Next, an appropriate volume of this C-peptide solution was added to 10 mL of a 7% solution of RBCs to create a solution containing the C-peptide at concentrations in the 1-5 nM range.” for “μM.”, “Tex.). […]” for “Tex.).”

[3] = test system: RBCs; test: Lysis control: ATP signal of RBC solutions under non-flow conditions (luminometer); assay type: cell-based; conditions: 200 μL RBC solution and 200 μL luciferin/luciferase
Protocol: To ensure that the resulting increase in ATP release was due to C-peptide interacting with the RBCs and not cell lysis, the RBC solutions were measured under non-flow conditions using a luminometer with 200 μL of the RBC solution and 200 μL of the luciferin/luciferase solution. […] To ensure that lysis was not occurring in the tubing, a solution of 0.01 M glybenclamide was prepared by adding 49 mg of glybenclamide (Sigma) to 2 mL of a 0.1 M solution of sodium hydroxide. To this, 7.94 mL of a dextrose solution (1 g dextrose in 20 mL of purified water) was added. The mixture was heated carefully to 52° C. until all of the glybenclamide was dissolved. Once the solute was completely dissolved, 1 mL of this solution was added to 9 mL of PSS, resulting in a solution with a concentration 0.001 M. From this diluted solution, 2.5 mL were added to 2.5 mL of 7% hematocrit RBC solution, resulting in a 3.5% hematocrit solution of RBCs. This solution was allowed to incubate for 15 minutes. As a comparison, 2.5 mL of wash buffer without glybenclamide was added to 2.5 mL of 7% hematocrit RBCs. After 15 minutes, the RBC solutions were assayed.

[4] = Electrospray ionization mass spectrometry of C-peptide and metal adducts in aqueous solution; assay type: physicochemical; conditions: ESI-MS, remaining in solution for periods >30 days
Protocol: Mass Spectrometric Analysis of Metal-Peptide Binding. […] Thus, alternative postulated causes are tested, including that a covalent modification of the peptide, e.g., induction or lysis of a side-chain-to-side-chain bond or of a moiety covalently attached to an amino acid residue, might be involved, or that non-covalent interaction with another chemical species, e.g., a metal ion, might be involved in this effect.
The data in FIG. 3 reveal some information about the possible loss of activity of the C-peptide after preparation in the aqueous solvent. Specifically, the mass spectrum shown in FIG. 3a is that of peptide prepared in water and analyzed within 0.5 h of preparation. In 3a, the [M+3H]^3+ peak is present as are other forms of the peptide with sodium atoms, potassium atoms, or a combination thereof. […] The presence of this Fe(II) adduct to the C-peptide is not present 24 h after preparation.
Although the Fe(II)-bound C-peptide has the ability to increase ATP-release from deformed RBCs, its activity also appears somewhat limited. […] The unexpected result is that the population of Fe(II)-C-peptide adduct begins to diminish within 24 h after the addition of an Fe(II) source, and Fe(II) is then replaced by either sodium or potassium, or both, cations in the C-peptide complex.
Improving Metal-Induced Activity of C-Peptide. […]

[5] = test system: RBCs; test: Loss of ATP-release bioactivity of C-peptide preparation in water (metaanalysis of repeats of Experiments 1 and 2); assay type: cell-based

Molecule | effect on the C-peptide-induced increase in ATP release ([1]; RBCs incubated in glybenclamide) | increase in ATP release versus control (buffer without C-peptide) ([1]; 1 nM C-peptide, over the 6 h period) | increase in ATP release ([1]; 1 nM c-peptide, over a period of 8 h, normalized values) | ability to induce ATP release from deformed RBCs ([1]; C-peptide kept at 4° C. for >30 days) | restoration of ATP release levels of diabetic RBCs ([2]; RBCs of patients with type II diabetes (n=7)) | ATP release ([2]; after 6 hours of incubation with freshly prepared C-peptide preparation) [nM] | ATP release ([2]; at 0 hours, freshly prepared C-peptide preparation) [nM] | ATP signal under non-flow conditions [3] | degradation or cleavage of the peptide in solution [4] | time to loss of bioactivity after preparation in water [5] [h]
COc1ccc(Cl)cc1C(=O)NCCc1ccc(S(=O)(=O)NC(=O)NC2CCCCC2)cc1 [glybenclamide, reference compound] | can be inhibited |  |  |  |  |  |  |  |  | 
C-peptide: Human proinsulin C-peptide (American Peptide Co.), MW 3020 g/mol, synthetic (EAEDLQVGQVELGGGPGAGSLQPLALEGSLQ; (1)..(31) Hominidae sp. proinsulin C-peptide Human (Genbank P01308..gi124617), Chimpanzee (Genbank NP_001008996.1.. gi57113877), Orangutan (Genbank Q8HXV2..gi48428254), and Gorilla (Genbank AAM76640.1..gi23379796); listed as Hominidae sp.) |  | nearly three times that of the RBCs incubated with a control | approximately 2.9 times | no longer has the ability to induce ATP release from deformed RBCs | statistically equivalent to that of healthy, non-diabetic control patients | 256.1 ± 38.7 | 63.6 ± 12.6 | No detectable signals | not undergoing any type of degradation or cleavage | 24 to 36
